{"source": "patent US20180118707A1", "about": "“BETA-NAPHTHOISOFLAVONES, COMPOSITIONS CONTAINING, AND USES OF, SAME” (Thesan Pharmaceuticals, Inc., priority 2015, published 2018)", "key": {"human sebocyte cells": {"test_system": "human sebocyte cells", "assay": "MTT cytotoxicity assay in human cultured sebocytes after EROD", "assay_type": "cell-based", "experimental": "The essential methodology for culture and handling of human cultured sebocytes has been described in earlier examples for HEPG2 and NHK cells. Cells are seeded at between 1×10^4 and 2.5×10^4 cells/well in a 96-well microtitre plate. […] The formation of resorufin is quantified by fluorometry with a fluorescence plate reader. Fluorescence is determined at λex 570 nm and λem 590 nm. The amount of resorufin is calculated from a standard curve generated using 0 to 1 μM resorufin in water at ½ log dilutions. The remaining (i.e. all cells present at the beginning of analysis, since only supernatant is taken to assay EROD) live cells are subsequently utilized for the MU cytotoxicity assay. MU is made up in serum-free medium at 5 mg/mi. then added to the cells giving a final concentration of 10% (0.5 mg/ml MIT final) then incubated for 2 h. The medium is carefully removed, then MIT formazan is solubilized by adding 200 μl of DMSO and subsequently mixed on a plate shaker. The absorbance is measured spectrophotometrically at 550 nm and background absorbance at […] is subtracted. A standard curve generated using MTT formazan (dissolved in DMSO) from O—200 μM (0, 2, 5, 10, 20, 50, 100, 200 μM) is used to calculate the final experimental values which are then expressed as (μmol resorufin/mol MTT formazan) or as fold-induction compared to solvent."}, "CYP1A1 mRNA": {"test_system": "CYP1A1 mRNA", "assay": "Induction of CYP1A1 mRNA in HepG2 cells (RT-PCR)", "assay_type": "cell-based, human", "conditions": "24 h incubation, 10 uM, normalized to 18S rRNA", "experimental": "HepG2 cells (American Type Culture Collection (ATCC), Manassas, Va.) were cultured using Eagle's minimal essential medium (ATCC), supplemented with 10% fetal calf serum (Invitrogen Life Technologies). The cells were cultured continuously until used in experiments (similar to Examples 2 and 3). Celts were plated at a seeding density of 3.8×10^5 cells per well on 6-well plates (Corning Costar, N.Y., U.S.A.). Cells were allowed to attach for 24 h in a 37° C. humidified incubator with a 5% CO2 atmosphere. Media was replaced with that containing test agents or vehicle (0.1% dimethylsuiphoxide) and cells incubated for a further 24 h. Following the 24 h incubation with test agents, media was removed and RNA prepared using the Purelink RNA mini kit (ThermoFischer, Carlsbad, Calif.). Nucleic acid concentration was determined using a Nanodrop™ spectrophotometer (ThermoScientific) by measuring the OD at 260 nm and RNA purity was evaluated using the OD 260/280 nm ratio, 1 μg RNA was reverse transcribed using SuperScript®VILO™ (ThermoFischer) with cDNA synthesis performed using the following parameters: 10min at 25° C., 2 h at 42° C., 5min at 85° C. (deactivation) followed by a completion temperature de C. […] Results were analyzed by calculating the fold change of CYP1A1 mRNA levels normalized to 18S rRNA (ΔΔCt) in compound treated cells or tissues compared to vehicle levels."}, "CYP1A1 enzyme": {"test_system": "CYP1A1 enzyme", "assay": "Induction of CYP1A1 enzyme in human cultured sebocytes, EROD assay", "assay_type": "cell-based", "conditions": "10 uM, 24 h", "experimental": "(§1) Cells are seeded at between 1×10^4 and 2.5×10^4 cells/well in a 96-well microtitre plate. […] 100 μl of medium is then transferred to a fresh black 96-well plate and 130 μl methanol added. The formation of resorufin is quantified by fluorometry with a fluorescence plate reader. Fluorescence is determined at λex 570 nm and λem 590 nm. The amount of resorufin is calculated from a standard curve generated using 0 to 1 μM resorufin in water at ½ log dilutions. The remaining (i.e. all cells present at the beginning of analysis, since only supernatant is taken to assay EROD) live cells are subsequently utilized for the MU cytotoxicity assay. MU is made up in serum-free medium at 5 mg/mi. then added to the cells giving a final concentration of 10% (0.5 mg/ml MIT final) then incubated for 2 h. The medium is carefully removed, then MIT formazan is solubilized by adding 200 μl of DMSO and subsequently mixed on a plate shaker. The absorbance is measured spectrophotometrically at 550 nm and background absorbance at […] is subtracted. A standard curve generated using MTT formazan (dissolved in DMSO) from O—200 μM (0, 2, 5, 10, 20, 50, 100, 200 μM) is used to calculate the final experimental values which are then expressed as (μmol resorufin/mol MTT formazan) or as fold-induction compared to solvent."}, "CYP1A1": {"test_system": "CYP1A1", "assay": "Induction of CYP1A1 enzyme in human cultured sebocytes, EROD assay", "assay_type": "cell-based", "conditions": "cultured sebocytes, probe 7-ethoxyresorufin (8 μM)", "experimental": "as §1"}}, "data": [{"compound": "O=c1cc(-c2ccccc2)oc2ccc3ccccc3c12", "note": "[D, 3-Phenyl-1H-benzo[f]chromen-1-one, reference compound]", "values": [{"measurement": "Toxicity threshold", "setting": "human sebocyte cells", "value": 30, "unit": "µM"}, {"measurement": "CYP1A1 mRNA fold change from vehicle", "setting": "CYP1A1 mRNA", "value": 596, "unit": "fold"}, {"measurement": "% change vs. TCDD EROD (Sebs) at 10 uM", "setting": "CYP1A1 enzyme", "value": 17, "unit": "%"}, {"measurement": "EC50 at 24 h", "setting": "CYP1A1", "value": 1000, "unit": "nM"}]}]}
